Measurements as given in US9833497B2, “Human originated EGF domain proteins and use of the same” (CHENGDU SOURCEBIO LIMITED-LIABILITY COMPANY, priority 2013, dated 2017).

What was measured:
Assay type in all cases: cell-based
E. coli DH5α = assay: Antibacterial activity: MIC and growth curve against E. coli DH5α in 96-well plate; conditions: minimal inhibitory concentration against E. coli DH5α; 96-well plate, 5×10^5 CFU/mL, 37° C., judged after 8 h
In short: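 MIC taken as lowest protein level with no bacterial growth, tracked by A600 every 30 min during 37 °C, 175 rpm culture. Two-fold protein series 50-12.5 μg/mL final, triplicate wells, against 5×10^5 CFU/mL of LB-washed mid-log cells.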

E. coli BL21 = assay: MIC against Gram-negative bacteria: E. coli BL21; conditions: 5×10^5 CFU/mL
In short: (§1)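 Antibacterial activity of purified human EGF domain proteins: two-fold concentration series, triplicate wells, LB broth, 5×10^5 CFU/mL bacteria, 37° C shaking incubation. The lowest concentration without growth defines the MIC.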

Pseudomonas aeruginosa = assay: MIC against Gram-negative bacteria: Pseudomonas aeruginosa; conditions: 5×10^5 CFU/mL
In short: as §1

Klebsiella pneumonia = assay: MIC against Gram-negative bacteria: Klebsiella pneumonia; conditions: 5×10^5 CFU/mL
In short: as §1

Enterobacter cloacae = assay: MIC against Gram-negative bacteria: Enterobacter cloacae; conditions: 5×10^5 CFU/mL
In short: as §1

Aeromonas hydrophila = assay: MIC against Gram-negative bacteria: Aeromonas hydrophila; conditions: 5×10^5 CFU/mL
In short: as §1

Citrobacter diversus = assay: MIC against Gram-negative bacteria: Citrobacter diversus; conditions: 5×10^5 CFU/mL
In short: as §1

Moraxella catarrhalis = assay: MIC against Gram-negative bacteria: Moraxella catarrhalis; conditions: 5×10^5 CFU/mL
In short: as §1

Proteus mirabilis = assay: MIC against Gram-negative bacteria: Proteus mirabilis; conditions: 5×10^5 CFU/mL
In short: as §1

Proteus vulgaris = assay: MIC against Gram-negative bacteria: Proteus vulgaris; conditions: 5×10^5 CFU/mL
In short: as §1

Serratia marcescens = assay: MIC against Gram-negative bacteria: Serratia marcescens; conditions: 5×10^5 CFU/mL
In short: as §1

[1] = E. coli BL21, 96-well plate, 37° C., 10 h
[2] = Pseudomonas aeruginosa, 96-well plate, 37° C., 10 h
[3] = Klebsiella pneumonia, 96-well plate, 37° C., 10 h
[4] = Enterobacter cloacae, 96-well plate, 37° C., 10 h
[5] = Aeromonas hydrophila, 96-well plate, 37° C., 10 h
[6] = Citrobacter diversus, 96-well plate, 37° C., 10 h
[7] = Moraxella catarrhalis, 96-well plate, 37° C., 10 h
[8] = Proteus mirabilis, 96-well plate, 37° C., 10 h
[9] = Proteus vulgaris, 96-well plate, 37° C., 10 h
[10] = Serratia marcescens, 96-well plate, 37° C., 10 h
[11] = 10 h cultivation at 37° C., two-fold serial dilution

PRT505 (CECHVKGSHSAVCHLETGLCDCKPNVTGQQCDQCLHGYYGLDSGHGCRP; listed as Homo sapiens)
MIC (E. coli DH5α): 50 µg/mL
MIC against E. coli BL21 (E. coli BL21; 96-well plate, 37° C., 10 h): 12.5 µg/mL
MIC against P. aeruginosa (Pseudomonas aeruginosa; 96-well plate, 37° C., 10 h): 50 µg/mL
MIC against K. pneumonia (Klebsiella pneumonia; 96-well plate, 37° C., 10 h): 12.5 µg/mL
MIC against E. cloacae (Enterobacter cloacae; 96-well plate, 37° C., 10 h): 50 µg/mL
MIC against A. hydrophila (Aeromonas hydrophila; 96-well plate, 37° C., 10 h): 12.5 µg/mL
MIC against C. diversus (Citrobacter diversus; 96-well plate, 37° C., 10 h): 50 µg/mL
MIC against M. catarrhalis (Moraxella catarrhalis; 96-well plate, 37° C., 10 h): 25 µg/mL
MIC against P. mirabilis (Proteus mirabilis; 96-well plate, 37° C., 10 h): 12.5 µg/mL
MIC against P. vulgaris (Proteus vulgaris; 96-well plate, 37° C., 10 h): 25 µg/mL
MIC against S. marcescens (Serratia marcescens; 96-well plate, 37° C., 10 h): 50 µg/mL

PRT221 (YTECTDGYEWDPDSQHCRDVNECLTIPEACKGEMKCINHYGGYLCL; listed as Homo sapiens)
MIC (E. coli DH5α): 12.5 µg/mL
MIC (μg/mL) E. coli BL21 (E. coli BL21; E. coli BL21, 10 h cultivation at 37° C.): 50 µg/mL
MIC (μg/mL) P. aeruginosa (Pseudomonas aeruginosa; P. aeruginosa, 10 h cultivation at 37° C.): 50 µg/mL
MIC (μg/mL) K. pneumonia (Klebsiella pneumonia; K. pneumonia, 10 h cultivation at 37° C.): 12.5 µg/mL
MIC (μg/mL) E. cloacae (Enterobacter cloacae; E. cloacae, 10 h cultivation at 37° C.): 25 µg/mL
MIC (μg/mL) A. hydrophila (Aeromonas hydrophila; A. hydrophila, 10 h cultivation at 37° C.): 50 µg/mL
MIC (μg/mL) C. diversus (Citrobacter diversus; C. diversus, 10 h cultivation at 37° C.): 25 µg/mL
MIC (μg/mL) M. catarrhalis (Moraxella catarrhalis; M. catarrhalis, 10 h cultivation at 37° C.): 12.5 µg/mL
MIC (μg/mL) P. mirabilis (Proteus mirabilis; P. mirabilis, 10 h cultivation at 37° C.): 25 µg/mL
MIC (μg/mL) P. vulgaris (Proteus vulgaris; P. vulgaris, 10 h cultivation at 37° C.): 50 µg/mL
MIC (μg/mL) S. marcescens (Serratia marcescens; S. marcescens, 10 h cultivation at 37° C.): 12.5 µg/mL

PRT1211 (LSPYCKDEPCKNGGTCFDSLDGAVCQCDSGFRGERCQ; listed as Homo sapiens)
MIC (E. coli DH5α): 50 µg/mL
MIC against E. coli BL21 (E. coli BL21; [1]): 25 µg/mL
MIC against P. aeruginosa (Pseudomonas aeruginosa; [2]): 12.5 µg/mL
MIC against K. pneumonia (Klebsiella pneumonia; [3]): 25 µg/mL
MIC against E. cloacae (Enterobacter cloacae; [4]): 50 µg/mL
MIC against A. hydrophila (Aeromonas hydrophila; [5]): 25 µg/mL
MIC against C. diversus (Citrobacter diversus; [6]): 12.5 µg/mL
MIC against M. catarrhalis (Moraxella catarrhalis; [7]): 25 µg/mL
MIC against P. mirabilis (Proteus mirabilis; [8]): 50 µg/mL
MIC against P. vulgaris (Proteus vulgaris; [9]): 25 µg/mL
MIC against S. marcescens (Serratia marcescens; [10]): 12.5 µg/mL

PRT1101 (MKDPCFSNPCQGSATCVNTPGERSFLCKCPPGYSGTICE; listed as Homo sapiens)
MIC (E. coli DH5α): 25 µg/mL
MIC E. coli BL21 (E. coli BL21; [11]): 50 µg/mL
MIC P. aeruginosa (Pseudomonas aeruginosa; [11]): 25 µg/mL
MIC K. pneumonia (Klebsiella pneumonia; [11]): 12.5 µg/mL
MIC E. cloacae (Enterobacter cloacae; [11]): 25 µg/mL
MIC A. hydrophila (Aeromonas hydrophila; [11]): 50 µg/mL
MIC C. diversus (Citrobacter diversus; [11]): 12.5 µg/mL
MIC M. catarrhalis (Moraxella catarrhalis; [11]): 25 µg/mL
MIC P. mirabilis (Proteus mirabilis; [11]): 50 µg/mL
MIC P. vulgaris (Proteus vulgaris; [11]): 25 µg/mL
MIC S. marcescens (Serratia marcescens; [11]): 12.5 µg/mL

PRT82 (CDCYPTGSLSRVCDPEDGQCPCKPGVIGRQCDRCDNPFAEVTTNGCEV; listed as Homo sapiens)
MIC (E. coli DH5α): 25 µg/mL
MIC (μg/mL) E. coli BL21 (E. coli BL21; [1]): 12.5 µg/mL
MIC (μg/mL) P. aeruginosa (Pseudomonas aeruginosa; [2]): 25 µg/mL
MIC (μg/mL) K. pneumonia (Klebsiella pneumonia; [3]): 50 µg/mL
MIC (μg/mL) E. cloacae (Enterobacter cloacae; [4]): 25 µg/mL
MIC (μg/mL) A. hydrophila (Aeromonas hydrophila; [5]): 12.5 µg/mL
MIC (μg/mL) C. diversus (Citrobacter diversus; [6]): 50 µg/mL
MIC (μg/mL) M. catarrhalis (Moraxella catarrhalis; [7]): 100 µg/mL
MIC (μg/mL) P. mirabilis (Proteus mirabilis; [8]): 12.5 µg/mL
MIC (μg/mL) P. vulgaris (Proteus vulgaris; [9]): 12.5 µg/mL
MIC (μg/mL) S. marcescens (Serratia marcescens; [10]): 12.5 µg/mL

PRT532 (CWCSALGSYQMPCSSVTGQCECRPGVTGQRCDRCLSGAYDFPHCQGSSSACDP; listed as Homo sapiens)
MIC (E. coli DH5α): 12.5 µg/mL
MIC against E. coli BL21 (E. coli BL21; 96-well plate, 37° C., 10 h): 50 µg/mL
MIC against P. aeruginosa (Pseudomonas aeruginosa; 96-well plate, 37° C., 10 h): 12.5 µg/mL
MIC against K. pneumonia (Klebsiella pneumonia; 96-well plate, 37° C., 10 h): 12.5 µg/mL
MIC against E. cloacae (Enterobacter cloacae; 96-well plate, 37° C., 10 h): 12.5 µg/mL
MIC against A. hydrophila (Aeromonas hydrophila; 96-well plate, 37° C., 10 h): 12.5 µg/mL
MIC against C. diversus (Citrobacter diversus; 96-well plate, 37° C., 10 h): 12.5 µg/mL
MIC against M. catarrhalis (Moraxella catarrhalis; 96-well plate, 37° C., 10 h): 50 µg/mL
MIC against P. mirabilis (Proteus mirabilis; 96-well plate, 37° C., 10 h): 12.5 µg/mL
MIC against P. vulgaris (Proteus vulgaris; 96-well plate, 37° C., 10 h): 50 µg/mL
MIC against S. marcescens (Serratia marcescens; 96-well plate, 37° C., 10 h): 12.5 µg/mL
